Test results from publication PMC10669340, “Bioactive Compounds from an Endophytic Pezicula sp. Showing Antagonistic Effects against the Ash Dieback Pathogen” (Biomolecules, 2023).
Like-named read-outs stand apart in the source and are kept apart here.

Assays:
MTT cytotoxicity assay = assay type: cell-based; conditions: read-out: Cytotoxic activity (IC50)
Experimental: (§1) The in vitro cytotoxicity assay was performed using the MTT (3-(4,5-dimethylthiayol-2-yl)-2,5-diphenyltetrazolium bromide) test in 96-well microtiter plates as previously described.

[1] = tested on: Chromobacterium violaceum DSM 30191; test: Antimicrobial serial dilution assay (MIC); assay type: cell-based; conditions: n.i.: no inhibition
Experimental: (§2) The antimicrobial activity (minimum inhibitory concentration, MIC) of the compounds was determined against Acinetobacter baumannii DSM 30008, Bacillus subtilis DSM 10, Chromobacterium violaceum DSM 30191, Escherichia coli DSM 1116, Mycobacterium smegmatis ATCC 700084, Pseudomonas aeruginosa PA14, Staphylococcus aureus DSM 346, Candida albicans DSM1665, Mucor hiemalis DSM 2656, Pichia anomala DSM 6766, Rhodotorula glutinis DSM 10134 and Schizosaccharomyces pombe DSM 70572 in a serial dilution assay as previously described.

[2] = tested on: Acinetobacter baumannii DSM 30008; test: Antimicrobial serial dilution assay (MIC); assay type: cell-based; conditions: n.i.: no inhibition
Experimental: as §2

[3] = tested on: Rhodotorula glutinis DSM 10134; test: Antimicrobial serial dilution assay (MIC); assay type: cell-based; conditions: Rhodotorula glutinis DSM 10134; n.i.: no inhibition
Experimental: as §2

[4] = tested on: Mycobacterium smegmatis ATCC 700084; test: Antimicrobial serial dilution assay (MIC); assay type: cell-based; conditions: Mycobacterium smegmatis ATCC 700084; n.i.: no inhibition
Experimental: as §2

[5] = tested on: Schizosaccharomyces pombe DSM 70572; test: Antimicrobial serial dilution assay (MIC); assay type: cell-based; conditions: Schizosaccharomyces pombe DSM 70572; n.i.: no inhibition
Experimental: as §2

[6] = tested on: Staphylococcus aureus DSM 346; test: Antimicrobial serial dilution assay (MIC); assay type: cell-based; conditions: Staphylococcus aureus DSM 346; n.i.: no inhibition
Experimental: as §2

Bacillus subtilis DSM 10 = test: Antimicrobial serial dilution assay (MIC); assay type: cell-based; conditions: Bacillus subtilis DSM 10; n.i.: no inhibition
Experimental: as §2

Mucor hiemalis DSM 2656 = test: Antimicrobial serial dilution assay (MIC); assay type: cell-based; conditions: Mucor hiemalis DSM 2656; n.i.: no inhibition
Experimental: as §2

Pichia anomala DSM 6766 = test: Antimicrobial serial dilution assay (MIC); assay type: cell-based; conditions: Pichia anomala DSM 6766; n.i.: no inhibition
Experimental: as §2

[7] = tested on: Escherichia coli DSM 1116; test: Antimicrobial serial dilution assay (MIC); assay type: cell-based; conditions: n.i.: no inhibition
Experimental: as §2

[8] = tested on: Pseudomonas aeruginosa PA14; test: Antimicrobial serial dilution assay (MIC); assay type: cell-based; conditions: n.i.: no inhibition
Experimental: as §2

Candida albicans DSM1665 = test: Antimicrobial serial dilution assay (MIC); assay type: cell-based; conditions: n.i.: no inhibition
Experimental: as §2

[9] = tested on: panel of bacteria and fungi; test: Antimicrobial serial dilution assay, whole panel (summary statements); assay type: cell-based
Experimental: as §2

[10] = tested on: panel of mammalian cell lines; test: MTT cytotoxicity assay, panel (summary statements); assay type: cell-based; conditions: 4–6 only KB3.1 and L929
Experimental: as §1

[11] = tested on: Candida albicans DSM 11225 biofilm; test: Biofilm assay, inhibition of biofilm formation; assay type: cell-based; conditions: (/) no activity
Experimental: The stock of fungal pathogen Candida albicans DSM 11225 from −20 °C was cultured in 25 mL YPD (Yeast extract Peptone Dextrose; dextrose 20 g/L, peptone 20 g/L, yeast extract 10 g/L) medium in a 250 mL flask at 30 °C with shaking 100 rpm for 18 h. Turbidity of the broth was measured and diluted to match the turbidity of a 0.05 McFarland standard in RPMI 1640 medium (Gibco, New York, NY, USA, Thermo Fisher Scientific). Afterwards, 150 μL of the fungal dispersion was added into each well of a 96-well microtiter plate (Falcon no. 351172, Thermo Fisher Scientific) and further incubated for 90 min. The supernatant was removed, and the plate was washed once by using PBS buffer. Compounds were serially diluted in 150 μL in fresh medium to concentrations of 250–2 μg/mL. Staining and analysis were conducted as previously described. Methanol (2.5%) and farnesol (250–2 μg/mL) were used as solvent and positive controls. Error bars indicate SD with duplicates in two biological repeats.

[12] = tested on: Fraxineus excelsior leaves; test: Phytotoxicity leaf puncture assay; conditions: 1 mg/mL in MeOH, 20 µL on punctured leaves, evaluated after 3 days
Experimental: The phytotoxicity of the compounds 1, 3 and 4 was assessed using the leaf puncture assay as described previously. The other compounds could not be evaluated because of the limited quantity.
For this assay, similar leaves of the same Fraxineus excelsior plant were chosen onto which the compounds were applied. The pure compounds were dissolved at 1 mg/mL in MeOH. Then, 20 µL of test samples were applied to the adaxial sides of leaves that had previously been needle punctured. A total of 20 µL of MeOH in distilled water (4%) was applied on the leaves as the negative control and 1 mg/mL macrocidin A [23] as the positive control. Each treatment was repeated three times and then the leaves were placed on moistened paper filters in petri dishes (diameter 9 cm) to prevent the droplets from drying. The experiment was run in duplicate. Leaves were evaluated for the symptoms after 3 days.

[13] = tested on: H. fraxineus (isolate RH02-T6-B4-2); test: Agar disc diffusion assay; assay type: cell-based, Hymenoscyphus fraxineus; conditions: 6 mm disc, 7 days, 21 °C, n.i.: no inhibition
Experimental: The antifungal activity of the isolated compounds against H. fraxineus was assessed by the disc diffusion method using 9 cm diameter petri dishes as previously described […] Three sterile filter paper discs per plate were gently placed on dried potato–dextrose agar. The fungicide nystatin was applied as the positive control (20 and 50 µg/paper disc) and methanol as the negative control (10 µL/paper disc). The test plates were incubated at 21 °C for 7 days, the inhibition diameters were measured, and the activity was evaluated compared to nystatin.
Figure S44: Agar disc (6 mm diam.) diffusion assay of compound CJ-17,572 (1) against H. fraxineus RH02-T6-B4-2, grown in 9-cm petri dishes on agar-based PD
medium with H. fraxineus, N - positive control nystatin, M - negative control methanol, CJ – 1.
Table S1. Antifungal activity of the compounds 1-6. n.i.: no inhibition, n.t.: not tested.
Compounds Amount ( µg/paper disc)
Peziculastatin n.t. n.i. 8 mm
Mycorrhizin A 19 mm 31 mm n.t.
Cryptosporioptide A n.t. n.i. n.i.
Cryptosporioptide B n.t. n.i. 8 mm
Cryptosporioptide C n.t. n.i. n.i.
Nystatin 21 mm 24 mm n.t.

[14] = tested on: Staphylococcus aureus DSM 1104 preformed biofilm; test: Biofilm assay, dispersal of preformed biofilm; assay type: cell-based; design: Antibiofilm activity, preformed S. aureus: unit not given here; conditions: (/) no activity
Experimental: Staphylococcus aureus DSM 1104 from −20 °C stock was cultured in 25 mL CASO (Casein–Peptone Soymeal–Peptone; peptone from casein 15 g/L, peptone from soy flour 5 g/L, NaCl 5 g/L, pH 7.3) medium at 37 °C at 100 rpm in 250 mL for 20 h. The precultured suspension of S. aureus was adjusted so that its OD600 matched the turbidity of a 0.001 McFarland standard. S. aureus was incubated in 96-well tissue microtiter plates (TPP tissue culture ref.no 92196, Switzerland) for 24 h at 150 rpm in […] CASO medium with 4% glucose broth. The supernatant was removed from the wells and 150 μL of the respective media (fresh) was added to the wells, together with the serially diluted compounds (250–2 μg/mL). The plates were incubated for a further 24 h at 37 °C. Staining of the biofilms was carried out as described previously. Standard deviation (SD) of two repeats with duplicates each were 10% or less. Methanol (2.5%) and microporenic acid A (250–2 μg/mL) were used as solvent and positive controls. Error bars indicate SD with duplicates in two biological repeats.

Compound	Minimum inhibitory concentration (MIC) [1]	Minimum inhibitory concentration (MIC) [2]	Minimum inhibitory concentration (MIC) [3]	Minimum inhibitory concentration (MIC) [4]	Minimum inhibitory concentration (MIC) [5]	Minimum inhibitory concentration (MIC) [6]	Minimum inhibitory concentration (MIC) (Bacillus subtilis DSM 10)	Minimum inhibitory concentration (MIC) (Mucor hiemalis DSM 2656)	Minimum inhibitory concentration (MIC) (Pichia anomala DSM 6766)	Minimum inhibitory concentration (MIC) [7]	Minimum inhibitory concentration (MIC) [8]	Minimum inhibitory concentration (MIC) (Candida albicans DSM1665)	further results
COC1=C(C(=O)[C@@]2(C)[C@@H](C)C=C[C@H]3C[C@@H](C)CC[C@@H]32)C(=O)[C@H]([C@@H](C)O)N1C [Compound 8, 2′-methyl-CJ-17,572]	n.i.	n.i.	n.i.	n.i.	n.i.	n.i.	n.i.	n.i.	n.i.	n.i.	n.i.	n.i.	IC50 (MTT cytotoxicity assay; human, A431 squamous cell carcinoma cells): 20 µM; IC50 (MTT cytotoxicity assay; human, A549 lung carcinoma cells): 35 µM; IC50 (MTT cytotoxicity assay; human, KB3.1 endocervical adenocarcinoma cells, n.c.: no cytotoxicity): 15 µM; IC50 (MTT cytotoxicity assay; human, MCF-7 breast adenocarcinoma cells): 1.8 µM; IC50 (MTT cytotoxicity assay; human, PC-3 prostate cancer cells): 18 µM; IC50 (MTT cytotoxicity assay; human, SKOV-3 ovarian carcinoma cells): 21 µM; IC50 (MTT cytotoxicity assay; mouse, L929 fibroblast cells, n.c.: no cytotoxicity): 43 µM; antimicrobial activity against the tested microorganisms (in words) [9]: did not show any activity; cytotoxicity against the tested cell lines (in words) [10]: active against all the tested cell lines
CC12Oc3ccc(-c4ccc5c(c4O)C(=O)C4=C(O)C6OC6(C)C(OC(=O)CC(=O)O)C4(C)O5)c(O)c3C(=O)C1=C(O)C1OC1(C)C2OC(=O)CC(=O)O (stereo not shown) [Compound 4, Cryptosporioptide A]	n.i.	n.i.	n.i.	n.i.	n.i.	n.i.	n.i.	n.i.	n.i.	n.i.	n.i.	n.i.	Antibiofilm activity, C. albicans ([11]; 31.3 µg/mL): 39; Antibiofilm activity, C. albicans ([11]; 62.5 µg/mL): 71; Antibiofilm activity, C. albicans ([11]; 125 µg/mL): 71; Antibiofilm activity, C. albicans ([11]; 250 µg/mL): 81; phytotoxic activity, leaf puncture assay [12]: brownish lesions; Antifungal activity, inhibition diameter ([13]; 50 µg/paper disc): n.i.; Antifungal activity, inhibition diameter ([13]; 100 µg/paper disc): n.i.; Antibiofilm activity, preformed S. aureus ([14]; 62.5 µg/mL): 70; Antibiofilm activity, preformed S. aureus ([14]; 125 µg/mL): 73; Antibiofilm activity, preformed S. aureus ([14]; 250 µg/mL): 80
